# Measured values: patent US20120171123A1, “USES AND COMPOSITIONS FOR TREATMENT OF RHEUMATOID ARTHRITIS” (priority 2006, published 2012)
# Tests used:
# adult patients with RA = assay: Study 1: change in C-reactive protein at Week 12; format: in vivo, human
# Method: 407 patients with active RA enrolled in the 2 study arms. Of these patients, 299 (73.5%) patients completed the study until Week 52 and were evaluated.
# Patients were grouped into three cohorts based on baseline CRP concentrations: low (<1 mg/dL); intermediate (1-4 mg/dL); and high (>4 mg/dL). Analyses were further conducted in two categories of patients according to their change in CRP concentrations at Week 12: those with a ≧20% decrease in CRP from baseline; or those with a <20% decrease in CRP from baseline. The following efficacy and radiographic measures were analyzed at Week 52 in the three baseline CRP categories and in the two Week 12 change in CRP categories: DAS28, ACR 20/50/70, Health assessment questionnaire (HAQ), and Total Sharp score (TSS).
# [1] = tested on: patients with active rheumatoid arthritis; settings: Study A (N=2008), 12 weeks; cited from earlier work
# [2] = tested on: patients with moderate to severe rheumatoid arthritis; assay: Study C (Canadian open-label, adalimumab 40 mg sc eow add-on): TJC/SJC; format: in vivo, human
# Method: (§1) The Canadian Adalimumab Clinical Trial (Study C) was an open-label, multi-center, Phase IIIb study conducted in Canada. […] Efficacy and safety were assessed at baseline, 4, 8, and 12 weeks. Efficacy assessments included tender joint count (TJC 0-28), swollen joint count (SJC 0-28), Disease Activity Score 28 (DAS28), Health Assessment Questionnaire (HAQ), and EULAR response. This was a preliminary analysis of 236 patients. The sample size for each outcome variable is based on the data available at the time of the analysis. The data from this preliminary analysis were compared with the Week 12 data from Study A (N=2008).
# [3] = tested on: MTX-naïve adult patients with active, early RA (<3 years); settings: in vivo
# From the text: Study J was a 2-year randomized controlled trial in patients with early RA (disease duration<3 years). Participants in these clinical trials and in other phase Mb studies, were routinely evaluated for safety. Reports of serious adverse events (SAE) were tabulated using MedDRA coding by events per 100-patient-years (E/100PY). SAE rates were compared with respect to disease duration between patients with early (<3 yrs) and long-standing RA.
# [4] = tested on: patients with active rheumatoid arthritis; assay: Study A: HAQ physical function; format: in vivo, human
# From the text: Efficacy of a treatment for rheumatoid arthritis can be determined by using the health assessment questionnaire (HAQ). Health Assessment Questionaire (HAQ) is a standardized disability questionnaire that was initially developed for use in rheumatoid arthritis (RA). […] The HAQ is a validated questionnaire designed to assess patients' ability to perform activities of daily living, particularly in adult arthritics. The instrument consists of the HAQ Disability Index (20 items), Pain Scale (1 item), and Global Health Status (1 item) that measure disability/physical functioning and quality of life (see Fries (1982) et al. J Rheumatol 9:789).
# Improvements in physical function were determined using the HAQ score.
# To evaluate the impact of prior biological therapies, patients with moderate to severe RA enrolled at 450 sites in 11 European countries plus Australia (Study A). Patients with moderate to severe RA and an inadequate response to prior DMARD therapies were enrolled in a 12-week open-label study with an optional extension phase. […] Efficacy parameters included ACR20, ACR50, ACR70, EULAR Response, HAQ, tender and swollen joint count (TJC28/SJC28), and DAS28.
# Patients with long-standing, moderate to severe RA were enrolled in Study A at 450 sites in 12 different countries. The study design for Study A is outlined in FIG. 21. […] Previous treatment with other biologics was allowed up to 8 weeks before enrollment. Patients met the following inclusion criteria: Age ≧18 years; RA (defined by American College of Rheumatology criteria) for ≧3 months; active, moderate to severe RA (Disease Activity Score (DAS28)≧3.2); unsatisfactory response or intolerance to at least one prior DMARD, including biologics. Efficacy assessments were performed at weeks 0 (baseline), 2, 6, and 12. The key outcomes measured were: change in DAS28; EULAR responses; ACR20, ACR50, ACR70 responses; changes in Tender Joint Count (TJC) and Swollen Joint Count (SJC); and change in Health Assessment Questionnaire (HAQ).
# Moderately to severely active RA was defined by Disease Activity Score 28 (DAS28)≧3.2 at baseline. Unsatisfactory response or intolerance to at least one prior DMARD was required for enrollment in Study A. A 12-week study period was followed by an optional extension phase with efficacy and routine safety evaluations performed at Weeks 2, 6, 12, 20, and every 8 weeks thereafter. […] Key efficacy parameters include ACR20, 50, and 70 responses; EULAR responses; and changes in DAS28, Tender Joint Count (TJC), Swollen Joint Count (SJC), C-Reactive Protein (CRP), and Health Assessment Questionnaire Disability Index (HAQ). […] Adverse events (AE) were collected throughout the entire treatment period, also beyond Week 52.
# [5] = tested on: patients with moderate to severe rheumatoid arthritis; assay: Study C: DAS28; format: in vivo, human
# Method: as §1
# [6] = tested on: patients with long-standing RA; settings: in vivo
# [7] = tested on: patients with long-standing RA; assay: Study I: serious adverse events and withdrawals; settings: 262 patients
# [8] = Study C, 12 weeks, preliminary analysis
# [9] = 12 weeks, all pts in Study A (n=4241)
# [10] = 12 weeks, prior biologic: Any (n=688)
# [11] = 12 weeks, prior biologic: ETA (n=114)
# [12] = 12 weeks, prior biologic: ETA + INF (n=78)
# [13] = 12 weeks, prior biologic: INF (n=358)
# [14] = 12 weeks, prior biologic: None (n=3553)
compound,measurement,setting,value
"CN(Cc1cnc2nc(N)nc(N)c2n1)c1ccc(C(=O)N[C@@H](CCC(=O)O)C(=O)O)cc1 [mtx alone, methotrexate]",patients with <20% decrease in CRP,adult patients with RA,67%
same,patients with ≧20% decrease in CRP,adult patients with RA,33%
"adalimumab: human anti-TNF mAb (HUMIRA, Abbott Laboratories), described in U.S. Pat. No. 6,090,382 as D2E7","EULAR response, % good",[1],34%
same,"EULAR response, % moderate",[1],82%
same,"SJC (0-28), change from baseline, median",[2]; [8],−7 (123)
same,"TJC (0-28), change from baseline, median",[2]; [8],−10 (123)
same,mean SJC,[2]; week 12 (baseline 14),7.4
same,mean TJC,[2]; week 12 (baseline 17),8.1
same,All infectious AE,[3],110 Events/100-PY
same,Demyelination,[3],0.0 Events/100-PY
same,Lymphoma,[3],0.0 Events/100-PY
same,Malignancies,[3],0.9 Events/100-PY
same,Pancytopenia,[3],0.0 Events/100-PY
same,Serious AE,[3],21.1 Events/100-PY
same,Serious Infectious AE,[3],0.7 Events/100-PY
same,improvement in HAQ score,"[4]; 12 weeks, N=2008 analysis",−0.49
same,patients achieving HAQ<0.5,"[4]; 12 weeks, N=2008 analysis",25%
same,"Change in HAQ, mean change from baseline",[4]; [9],−0.49
same,HAQ < 0.5,[4]; [9],24%
same,"Change in HAQ, mean change from baseline",[4]; [10],−0.43
same,HAQ < 0.5,[4]; [10],13%
same,"Change in HAQ, mean change from baseline",[4]; [11],−0.36
same,HAQ < 0.5,[4]; [11],9%
same,"Change in HAQ, mean change from baseline",[4]; [12],−0.35
same,HAQ < 0.5,[4]; [12],13%
same,"Change in HAQ, mean change from baseline",[4]; [13],−0.49
same,HAQ < 0.5,[4]; [13],14%
same,"Change in HAQ, mean change from baseline",[4]; [14],−0.5
same,HAQ < 0.5,[4]; [14],26%
same,"Change in HAQ, mean change from baseline","[4]; Week 12, concomitant LEF only (n=557)",−0.47
same,"Change in HAQ, mean change from baseline","[4]; Week 12, concomitant MTX + LEF (n=123)",−0.53
same,"Change in HAQ, mean change from baseline","[4]; Week 12, concomitant MTX + SSZ",−0.53
same,"Change in HAQ, mean change from baseline","[4]; Week 12, concomitant MTX only (n=1561)",−0.52
same,"Change in HAQ, mean change from baseline","[4]; Week 12, concomitant QC/HQC (n=85)",−0.63
same,"Change in HAQ, mean change from baseline","[4]; Week 12, concomitant SSZ only (n=89)",−0.47
same,"Change in HAQ, mean change from baseline","[4]; Wk 12, concomitant MTX Im 15 mg (N=76), no other DMARD",−0.55
same,"Change in HAQ, mean change from baseline","[4]; Wk 12, concomitant MTX Iv 15 mg (N=23), no other DMARD",−0.54
same,"Change in HAQ, mean change from baseline","[4]; Wk 12, concomitant MTX Sc 15 mg (N=37), no other DMARD",−0.53
same,"Change in HAQ, mean change from baseline","[4]; Wk 12, concomitant MTX oral 15 mg (N=405), no other DMARD",−0.50
same,"Change in HAQ, mean change from baseline","[4]; Wk 12, concomitant MTX oral ≦7.5 (N=127), no other DMARD",−0.56
same,"Change in HAQ, mean change from baseline","[4]; Wk 12, concomitant MTX oral ≧20 mg (N=216), no other DMARD",−0.52
same,mean change in HAQ score from baseline,[4]; week 2,−0.32
same,mean change in HAQ score from baseline,[4]; week 6,−0.44
same,mean change in HAQ score from baseline,[4]; week 12,−0.51
same,patients achieving HAQ<0.5,[4]; week 12,5%
same,patients with a change in HAQ≧−0.22 (MCID),[4]; week 12,70%
same,change in HAQ,[4]; week 12 (n=6235),−0.52
same,patients achieving HAQ<0.5,"[4]; week 12, listed as Adalimumab",25%
same,change in HAQ,[4]; week 28 (n=4119),−0.56
same,change in HAQ,[4]; week 52 (n=1251),−0.57
same,"DAS28 (mean), change from baseline",[5]; [8],−2.1 (116)
same,mean decrease in DAS28 score,[5]; week 12,−2.1
same,patients achieving DAS28<2.6,[5]; week 12,10%
same,reduction in DAS28 score,[5]; week 12,32%
same,mean DAS28,[5]; week 12 (baseline 6.5),4.4
same,withdrawals for adverse events,[6],15%
same,withdrawals for lack of efficacy,[7],8%
